Data as given in patent US20060148760A1, “Method for the sysnthesis of compounds of formula I and their uses thereof” (TransTech Pharma, priority 2000, published 2006).
Where a name gives a salt, the structure may show the parent alone.

Experiments:
S-100b/RAGE interaction = target: T1, S-100b/RAGE interaction (Homo sapiens, UniProt Q15109); experiment: ELISA assay, S-100b binding to sRAGE; details: plate-bound S100b, concentration at which 50% signal is inhibited
T1 construct: generate soluble RAGE (sRAGE) comprised of the V and C domains
Description: (§1) S100b, β-amyloid and CML (500 ng/100 μL/well) in 100 mM sodium bicarbonate/sodium carbonate buffer (pH 9.8) is loaded onto the wells of a NUNC Maxisorp flat bottom 96—well microtitre plate. The plate is incubated at 4° C. overnight. The wells are aspirated and treated with 50 mM imidazole buffer saline (pH 7.2) (with 1 mM CaCl2/MgCl2) containing 1% bovine serum albumin (BSA) (300 μL/well) for two h at 37° C.
(§2) Test compounds are dissolved in nanopure water (concentration: 10-100 μM). DMSO may be used as co-solvent. 25 μL of test compound solution in 2% DMSO is added, along with 75 μL sRAGE (4.0×10^−4 mg/mL FAC) to each well and samples are incubated for 1 h at 37° C. The wells are washed 3 times with 155 mM NaCl pH 7.2 buffer saline and are soaked 10 seconds between each wash. Non-radioactive binding is performed by adding:
(§3) 10 μL Biotinylated goat F(ab′)2 Anti-mouse IgG. (8.0×10^−4 mg/mL, FAC)
(§4) 10 μL Alk-phos-Sterptavidin (3×10^−3 mg/mL FAC)
(§5) 10 μL Polyclonal antibody for sRAGE (FAC 6.0×10^−3 mg/mL) to 5 mL 50 mM imidazole buffer saline (pH 7.2) containing 0.2% bovine serum albumin and 1 mM CaCl2. The mixture is incubated for 30 minutes at 37° C. 100 μL complex is added to each well and incubation is allowed to proceed at rt for 1 h. Wells are washed 3 times with wash buffer and soaked 10 s between each wash. 100 μL 1 mg/mL (pNPP) in 1 M diethanolamine (pH adjusted to 9.8 with HCl) is added. […] The reaction is quenched with 10 μL of stop solution (0.5 N NaOH in 50% ethanol) and the absorbance is measured spectrophotometrically with a microplate reader at 405 nm.

[1] = target: T2, Carboxymethyl Lysine (CML)/RAGE interaction (Homo sapiens, UniProt Q15109); experiment: ELISA assay, CML binding to sRAGE; details: plate-bound CML
T2 construct: generate soluble RAGE (sRAGE) comprised of the V and C domains
Description: as §1, §2, §3, §4, §5

[2] = target: T3, β-amyloid—RAGE interaction (Homo sapiens, UniProt Q15109); experiment: ELISA assay, β-amyloid binding to sRAGE; details: plate-bound β-amyloid
T3 construct: generate soluble RAGE (sRAGE) comprised of the V and C domains
Description: as §1, §2, §3, §4, §5

T3 sequence (Q15109 23-342 limits assumed): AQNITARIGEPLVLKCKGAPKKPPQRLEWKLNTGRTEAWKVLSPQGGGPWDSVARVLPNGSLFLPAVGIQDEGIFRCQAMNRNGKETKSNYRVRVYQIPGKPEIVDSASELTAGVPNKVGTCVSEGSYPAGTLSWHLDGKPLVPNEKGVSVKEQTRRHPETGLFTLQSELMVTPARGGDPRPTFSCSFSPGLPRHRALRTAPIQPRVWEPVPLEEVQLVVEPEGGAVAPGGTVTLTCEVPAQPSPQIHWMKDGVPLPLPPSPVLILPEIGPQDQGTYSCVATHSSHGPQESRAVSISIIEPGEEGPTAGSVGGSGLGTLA
T2 sequence (Q15109 23-342 limits assumed): as above
T1 sequence (Q15109 23-342 limits assumed): as above

| Compound | IC50 (S-100b/RAGE interaction) [nM] | IC50 [1] [nM] | IC50 [2] [nM] |
| --- | --- | --- | --- |
| CCCCOc1cc(C(=O)OC)ccc1NC(=O)[C@H](N)Cc1ccc2ccccc2c1 [Example 2, (R)-3-(2-Naphthyl)-2-aminopropionic Acid 4-Methoxycarbonyl-2-butoxyaniline Amide Hydrochloride] | 5100 | 3160 |  |
| CCCCOc1cc(C(=O)OCCN(CC)CC)ccc1NC(=O)[C@@H](Cc1ccc(OCc2ccccc2)cc1)NC(=O)OC(C)(C)C [Example 3, (R)-3-(4-Benzyloxyphenyl)-2-tert-butoxycarbonylaminopropionic Acid 4-Diethylaminoethoxycarbonyl-2-butoxyaniline Amide] | 1320 | 1500 | 1500 |
| CCCCOc1cc(C(=O)OCCN(CC)CC)ccc1NC(=O)[C@H](N)Cc1ccc(OCc2ccccc2)cc1 [Example 4, (R)-3-(4-Benzyloxyphenyl)-2-aminopropionic Acid 4-Diethylaminoethoxycarbonyl-2-butoxyaniline Amide Dihydrochloride] | 820 | 1120 | 2200 |
| CCCCOc1cc(C(=O)OCCN(CC)CC)ccc1NC(=O)[C@@H](Cc1ccc2ccccc2c1)NC [Example 5, (R)-3-(2-Naphthyl)-2-methylaminopropionic Acid 4-Diethylaminoethoxycarbonyl-2-butoxyaniline Amide Dihydrochloride] | 2880 | 1270 | 1810 |
| COC(=O)c1ccc(NC(=O)[C@@H](Cc2ccc(OCc3ccccc3)cc2)NC(=O)OC(C)(C)C)c(O)c1 [Example 6, (R)-3-(4-Benzyloxyphenyl)-2-tert-butoxycarbonylaminopropionic Acid 4-Methoxycarbonyl-2-hydroxyaniline Amide] | 6300 |  |  |
| CC(C)(C)OC(=O)N[C@H](Cc1ccc(OCc2ccccc2)cc1)C(=O)Nc1ccc(C(=O)OC(C)(C)C)cc1OC(C)(C)C [Example 7, (R)-3-(4-Benzyloxyphenyl)-2-tert-butoxycarbonylaminopropionic Acid 4-tert-Butoxycarbonyl-2-tert-butoxyaniline Amide] | 1000 to 3000 | 8000 |  |
| CCN(CC)CCOC(=O)c1ccc(NC(=O)[C@@H](Cc2ccc(OCc3ccccc3)cc2)NC(=O)OC(C)(C)C)c(OCC(C)C)c1 [Example 8, (R)-3-(4-Benzyloxyphenyl)-2-tert-butoxycarbonylaminopropionic Acid 4-Diethylaminoethoxycarbonyl-2-isobutoxyaniline Amide] | 2000 |  |  |
| CCN(CC)CCOC(=O)c1ccc(NC(=O)[C@H](N)Cc2ccc(OCc3ccccc3)cc2)c(OCC(C)C)c1 [Example 9, (R)-3-(4-Benzyloxyphenyl)-2-aminopropionic Acid 4-Diethylaminoethoxycarbonyl-2-isobutoxyaniline Amide Dihydrochloride] | 1600 |  |  |
| CCCCOc1cc(C(=O)OCCN(CC)CC)ccc1NC(=O)[C@@H](Cc1ccccc1)NC(=O)OC(C)(C)C [Example 10, (R)-3-Phenyl-2-tert-butoxycarbonylaminopropionic Acid 4-Diethylaminoethoxycarbonyl-2-butoxyaniline Amide] | 950 |  |  |
| CCCCOc1cc(C(=O)OCCN(CC)CC)ccc1NC(=O)[C@H](N)Cc1ccccc1 [Example 11, (R)-3-Phenyl-2-aminopropionic Acid 4-Diethylaminoethoxycarbonyl-2-butoxyaniline Amide Dihydrochloride] | 10000 to 30000 |  |  |
| CCCCOc1cc(C(=O)OCCN(CC)CC)ccc1NC(=O)[C@@H](Cc1ccc(OCc2ccccc2)cc1)NC(C)C [Example 13, (R)-3-(4-Benzyloxyphenyl)-2-isopropylaminopropionic Acid 4-Diethylaminoethoxycarbonyl-2-butoxyaniline Amide] | 1000 | 700 | 1000 |
| CCCCOc1cc(C(=O)OCCN(CC)CC)ccc1NC(=O)[C@@H](Cc1ccc(OCc2ccccc2)cc1)NCc1ccccc1 [Example 14, (R)-3-(4-Benzyloxyphenyl)-2-benzylaminopropionic Acid 4-Diethylaminoethoxycarbonyl-2-butoxyaniline Amide] | 2800 |  |  |
| CCCCOc1cc(C(=O)OCCN(CC)CC)ccc1NC(=O)[C@@H](Cc1ccc(OCc2ccccc2)cc1)NS(C)(=O)=O [Example 15, (R)-3-(4-Benzyloxyphenyl)-2-methanesulfonylaminopropionic Acid 4-Diethylaminoethoxycarbonyl-2-butoxyaniline Amide] | 10000 to 30000 |  |  |
| CCCCOc1cc(C(=O)OCCN(CC)CC)ccc1NC(=O)[C@@H](Cc1ccc(OCc2ccccc2)cc1)NS(=O)(=O)c1ccccc1 [Example 16, (R)-3-(4-Benzyloxyphenyl)-2-phenylsulfonylaminopropionic Acid 4-Diethylaminoethoxycarbonyl-2-butoxyaniline Amide] | 20000 to 30000 |  |  |
| CCCCOc1cc(C(=O)OCCN(CC)CC)ccc1NC(=O)[C@@H](Cc1ccc(OCc2ccccc2)cc1)NC(=O)NCC [Example 17, (R)-3-(4-Benzyloxyphenyl)-2-ethylcarbamoylaminopropionic Acid 4-Diethylaminoethoxycarbonyl-2-butoxyaniline Amide] | 10000 |  |  |
| CCCCOc1cc(C(=O)OCCN(CC)CC)ccc1NC(=O)[C@@H](Cc1ccc(OCc2ccccc2)cc1)NC(=O)NC(C)(C)C [Example 18, (R)-3-(4-Benzyloxyphenyl)-2-tert-butylcarbamoylaminopropionic Acid 4-Diethylaminoethoxycarbonyl-2-butoxyaniline Amide] | 2300 | 840 | 2000 |
| CCN(CC)CCOc1ccc(NC(=O)[C@@H](Cc2ccc(OCc3ccccc3)cc2)NC(=O)OC(C)(C)C)c(OCCN(CC)CC)c1 [Example 19, (R)-3-(4-Benzyloxyphenyl)-2-tert-butoxycarbonylaminopropionic Acid 4-Diethylaminoethoxy-2-diethylaminoethoxyaniline Amide] | 1140 | 800 | 800 |
| CCN(CC)CCCOc1ccc(NC(=O)[C@@H](Cc2ccc(OCc3ccccc3)cc2)NC(=O)OC(C)(C)C)c(OCCCN(CC)CC)c1 [Example 21, (R)-3-(4-Benzyloxyphenyl)-2-tert-butoxycarbonylaminopropionic Acid 4-(3-Diethylamino-1-propoxy)-2-(3-diethylamino-1-propoxy)aniline Amide] | 640 | 460 | 1230 |
| CCN(CC)CCOC(=O)c1ccc(NC(=O)[C@@H](Cc2ccc(OCc3ccccc3)cc2)NC(=O)OC(C)(C)C)c(OCc2ccco2)c1 [Example 23, (R)-3-(4-Benzyloxyphenyl)-2-tert-butoxycarbonylaminopropionic Acid 4-Diethylaminoethoxycarbonyl-2-(2-furylmethoxy)aniline Amide] | 15500 |  |  |
| CCN(CC)CCOC(=O)c1ccc(NC(=O)[C@H](N)Cc2ccc(OCc3ccccc3)cc2)c(OCc2ccco2)c1 [Example 24, (R)-3-(4-Benzyloxyphenyl)-2-aminopropionic Acid 4-Diethylaminoethoxycarbonyl)-2-(2-furylmethoxy)aniline Amide Dihydrochloride] | 2700 |  |  |
| CCCCOc1cc(C(=O)OCCN(CC)CC)ccc1NC(=O)[C@@H](Cc1ccc2ccccc2c1)NC(C)=O [Example 25, (R)-3-(2-Naphthyl)-2-acetylaminopropionic Acid 4-Diethylaminoethoxycarbonyl-2-butoxyaniline Amide] | 15000 |  |  |
| CCCCOc1cc(C(=O)OCCN(CC)CC)ccc1NC(=O)[C@@H](Cc1ccc(OCc2ccccc2)cc1)NC(C)=O [Example 26, (R)-3-(4-Benzyloxyphenyl)-2-acetylaminopropionic Acid 4-Diethylaminoethoxycarbonyl-2-butoxyaniline Amide] | 5600 |  |  |
| (R)-3-(2-Naphthyl)-2-guanidinylpropionic Acid 4-Diethylaminoethoxycarbonyl-2-butoxyaniline Amide Dihydrochloride [Example 12] | 300 to 1000 | 700 | 5000 |
| (R)-3-(4-Benzyloxyphenyl)-2-aminopropionic Acid 4-(3-Diethylamino-1-propoxy)-2-(3-diethylamino-1-propoxyaniline Amide Trihydrochloride [Example 22] | 920 | 680 | 1730 |
| (R)-3-(4-Benzyloxyphenyl)-2-aminopropionic Acid 4-Diethylaminoethoxy-2-diethylaminoethoxyaniline Amide Trihydrochloride [Example 20] | 840 | 1000 | 1000 |
